Measurements taken from patent US6682892B2, “Method for treating herpes viruses” (priority 2000, dated 2004).

Key:
[1] = molecular target: HCMV (wild) polymerase (Human cytomegalovirus, UniProt P08546); assay: In vitro polymerase assay, wild HCMV polymerase; format: biochemical; conditions: Table 3
Experimental: In order to select for a 4-oxo-DHQ HCMV resistant mutant, virus (strain AD169) is serially passaged in the presence of 20 uM a 4-oxo-DHQ. […] In order to determine if both valines need to be changed in order to confer resistance to the 4-oxo-DHQ's, in vitro polymerase assays are done using mutant HCMV polymerases containing either V823A or V823A plus V824L (Table 3).

[2] = test system: HSV-2 186-M1 (V828A); assay: Plaque reduction assay, 4-oxo-DHQ resistant HSV-2 186-M1; format: cell-based; conditions: Table 2, mutant V828A
Experimental: (§1) Antiviral activity of compounds against herpesviruses such as HSV-1, HSV-2, or HCMV can be measured using plaque reduction assays. 0.1 ml of media containing approximately 50 PFU of virus is added to each well of a 24-well cell culture dish containing a confluent monolayer of cells (Vero cells for HSV-1 and HSV-2, HFF cells for HCMV). Compounds are dissolved in 100% DMSO and diluted in 100% DMSO as 200× stocks of the desired final drug concentration. Typically 5-6 two-fold dilutions are prepared for each compound. Dilutions of compounds are then added to media containing 0.8% CMC resulting in a final 1× drug concentration. After the virus-infected cells have incubated for 1 h at 37° C., the virus innoculum is removed and 1 ml of media containing 0.8% CMC and the various concentrations of compound is added to each well of the dish. The dish is incubated at 37° C. for approximately 2-3 days (HSV-1 and HSV-2) or 6-9 days (HCMV) to allow sufficient growth of virus to form plaques in the cell monolayer. Plaques can be observed and counted microscopically or by staining the cells with 0.1% crystal violet in 20% ethanol. […] The IC50 values are calculated by plotting the per cent inhibition vs. concentration of compound using EXCEL software for linear regression. […]

[3] = test system: HSV-1 DJL-M1 (V823A); assay: Plaque reduction assay, 4-oxo-DHQ resistant HSV-1 DJL-M1; format: cell-based; conditions: Table 2, mutant V823A
Experimental: as §1

[4] = test system: 4-oxo-DHQ resistant HSV-1, HSV-2 and HCMV mutants; assay: Plaque reduction assay, 4-oxo-DHQ resistant mutants compared with parent virus; format: cell-based; conditions: HSV-1 and HSV-2 mutants
Experimental: as §1

[5] = test system: HSV-1 DJL; assay: Plaque reduction assay, HSV-1 DJL; format: cell-based; conditions: Table 1, plaque reduction, Vero cells
Experimental: Antiviral activity of compounds against herpesviruses such as HSV-1, HSV-2, or HCMV can be measured using plaque reduction assays. 0.1 ml of media containing approximately 50 PFU of virus is added to each well of a 24-well cell culture dish containing a confluent monolayer of cells (Vero cells for HSV-1 and HSV-2, HFF cells for HCMV). Compounds are dissolved in 100% DMSO and diluted in 100% DMSO as 200× stocks of the desired final drug concentration. Typically 5-6 two-fold dilutions are prepared for each compound. Dilutions of compounds are then added to media containing 0.8% CMC resulting in a final 1× drug concentration. After the virus-infected cells have incubated for 1 h at 37° C., the virus innoculum is removed and 1 ml of media containing 0.8% CMC and the various concentrations of compound is added to each well of the dish. The dish is incubated at 37° C. for approximately 2-3 days (HSV-1 and HSV-2) or 6-9 days (HCMV) to allow sufficient growth of virus to form plaques in the cell monolayer. Plaques can be observed and counted microscopically or by staining the cells with 0.1% crystal violet in 20% ethanol. […] Antiviral activity of a compound is expressed as the concentration of compound predicted to reduce the number of plaques in a well by 50% (IC50). The IC50 values are calculated by plotting the per cent inhibition vs. concentration of compound using EXCEL software for linear regression.
A panel of viruses consisting of four strains of HSV-1 (KOS, F, DJL, Patton) and three strains of HSV-2 (MS, 35D, 186) are tested in a plaque reduction assay against four different 4-oxo-DHQ compounds (#1, 2, 4, 5 as shown in FIG. 1), and one 4-oxo-DHTP compound (#3 as shown in FIG. 1) and against Acyclovir. The six drugs inhibited replication of the seven virus strains with IC50 values ranging from 2-10 μM (Table 1). In order to select for 4-oxo-DHQ resistant mutants, HSV-1 strains KOS, F, and DJL along with HSV-2 strains 186 and MS are serially passaged in the presence of 20 uM compound 1. Following the seventh passage, 4-oxo-DHQ resistant virus from each strain are plaque purified three times and high-titer stocks are made.

Chain of HCMV (wild) polymerase (P08546 whole entry): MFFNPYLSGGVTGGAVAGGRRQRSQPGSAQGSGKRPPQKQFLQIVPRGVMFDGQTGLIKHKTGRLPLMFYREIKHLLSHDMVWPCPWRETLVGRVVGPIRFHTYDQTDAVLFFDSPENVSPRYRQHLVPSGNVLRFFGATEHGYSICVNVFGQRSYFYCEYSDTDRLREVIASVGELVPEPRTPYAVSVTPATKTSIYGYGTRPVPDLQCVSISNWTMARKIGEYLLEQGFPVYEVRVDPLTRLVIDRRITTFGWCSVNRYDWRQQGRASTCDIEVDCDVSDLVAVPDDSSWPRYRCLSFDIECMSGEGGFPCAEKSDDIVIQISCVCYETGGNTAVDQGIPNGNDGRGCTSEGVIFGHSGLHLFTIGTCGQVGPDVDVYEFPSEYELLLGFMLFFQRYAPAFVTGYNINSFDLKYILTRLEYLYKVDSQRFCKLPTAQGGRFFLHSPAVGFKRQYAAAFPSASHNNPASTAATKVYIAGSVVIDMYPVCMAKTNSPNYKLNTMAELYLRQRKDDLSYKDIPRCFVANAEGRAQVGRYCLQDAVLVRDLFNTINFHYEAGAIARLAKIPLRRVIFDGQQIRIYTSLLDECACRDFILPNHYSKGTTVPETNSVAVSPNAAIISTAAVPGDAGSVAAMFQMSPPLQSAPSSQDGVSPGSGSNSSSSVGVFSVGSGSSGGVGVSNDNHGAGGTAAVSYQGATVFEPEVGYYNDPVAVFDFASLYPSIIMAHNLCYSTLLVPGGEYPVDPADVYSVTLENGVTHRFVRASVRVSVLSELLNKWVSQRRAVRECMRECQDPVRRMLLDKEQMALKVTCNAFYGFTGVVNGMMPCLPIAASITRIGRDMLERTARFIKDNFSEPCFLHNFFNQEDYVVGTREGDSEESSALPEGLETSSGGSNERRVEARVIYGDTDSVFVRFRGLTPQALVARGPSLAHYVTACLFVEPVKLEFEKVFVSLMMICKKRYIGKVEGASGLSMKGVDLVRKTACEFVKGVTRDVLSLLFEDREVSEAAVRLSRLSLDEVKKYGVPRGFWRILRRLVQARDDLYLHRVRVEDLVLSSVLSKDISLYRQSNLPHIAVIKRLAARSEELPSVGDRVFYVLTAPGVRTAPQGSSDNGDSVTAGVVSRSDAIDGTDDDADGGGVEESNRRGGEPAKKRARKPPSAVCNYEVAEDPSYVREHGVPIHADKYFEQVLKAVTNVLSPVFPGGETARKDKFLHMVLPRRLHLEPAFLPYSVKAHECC

For Cn1cc(C(=O)NCc2ccc(Cl)cc2)c(=O)c2cc(/C=C\CO)cc(F)c21 [Compound 1], the IC50 [1] was 4.6 µM, the IC50 [2] was > 20 µM and the IC50 [3] was > 20 µM. The “increase in IC50, HSV mutants selected with compound 1” value [4] was > 10 fold and the IC50 [5] was 2.5 µM.
